The values below come from US6759420B1, “Arylalkanoyl derivatives, processes for their preparation, their use and pharmaceutical compositions containing them” (Aventis Pharma Deutschland GmbH, priority 1999, dated 2004).

The structures appear in SMILES notation. Where a name gives a salt, the structure may show the parent alone.

Usually Ki stands for a measure of affinity in units of concentration, obtained from inhibition or displacement. A lower Ki goes with a stronger hold on the target.

Sequence of factor Xa (P00742 235-488 limits assumed): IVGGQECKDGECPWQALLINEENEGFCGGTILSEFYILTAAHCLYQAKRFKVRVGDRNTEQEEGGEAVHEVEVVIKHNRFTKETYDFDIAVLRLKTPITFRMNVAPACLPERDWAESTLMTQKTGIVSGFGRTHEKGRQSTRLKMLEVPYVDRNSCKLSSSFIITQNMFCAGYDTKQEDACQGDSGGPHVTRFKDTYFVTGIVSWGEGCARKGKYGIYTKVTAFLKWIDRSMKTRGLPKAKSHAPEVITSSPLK
Sequence of factor Xa (P00742 41-179 limits assumed): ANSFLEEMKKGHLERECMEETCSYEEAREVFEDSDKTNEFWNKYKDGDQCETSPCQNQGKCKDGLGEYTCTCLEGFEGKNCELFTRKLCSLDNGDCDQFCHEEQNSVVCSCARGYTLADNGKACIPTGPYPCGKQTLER

The target of the assay is factor Xa (Homo sapiens, UniProt P00742). The experiment in a line: Factor Xa assay (Test 1a), chromogenic. It counts as biochemical. The arrangement: purchased Enzyme Research Laboratories, Inc; South Bend, Ind. The settings on record: in vitro factor Xa assay Test 1a; human factor Xa 0.5 nM, substrate S-2765 140 μM, 25° C.; Ki from IC50 corrected for substrate competition. From the text:
The ability of a compound of formula (I) to inhibit factor Xa, thrombin, plasmin, elastase, and trypsin may be assessed by determining the concentration of compound of formula (I) that inhibits enzyme activity by 50% (IC50). Purified enzymes are used in chromogenic assays. To determine the inhibition constant, the IC50 value is corrected for competition with substrate using the formula:
Ki=IC50×(1/{1+((substrate concentration)/substrate Km)})
where Km is the Michaelis-Menten constant. Y. -C. Chen and W. H. Prusoff, Biochem. Pharmacol. 22: […] (1973), which is incorporated herein by reference.
TBS-PEG buffer (50 mM Tris-Cl, pH 7.8, 200 mM NaCl, 0.05% (w/v) PEG-8000, 0.02% (w/v) NaN3) is used for this assay. The IC50 is determined by combining in appropriate wells of a Costar half-area microtiter plate 25 μl human factor Xa (Enzyme Research Laboratories, Inc.; South Bend, Ind.) in TBS-PEG; 40 μl 10% (v/v) DMSO in TBS-PEG (uninhibited control) or various concentrations of the compound to be tested diluted in 10% (v/v) DMSO in TBS-PEG; and substrate S-2765 (N-benzyloxycarbonyl-D-Arg-Gly-L-Arg-p-nitroanilide; Kabi Pharmacia, Inc.; Franklin Ohio) in TBS-PEG.
The assays are performed by pre-incubating the compound of formula (I) plus enzyme for 10 min, then the assay is initiated by adding substrate to obtain a final volume of 100 μl. The initial velocity of chromogenic substrate hydrolysis is measured by the change in absorbance at 405 nm using a Bio-tek Instruments kinetic plate reader (Ceres UV900HDi) at 25° C. during the linear portion of the time course (usually 1.5 min after addition of substrate). The concentration of inhibitor that causes a 50% decrease in the rate of substrate hydrolysis is predicted by linear regression after plotting the relative rates of hydrolysis (compared to the uninhibited control) versus the log of the compound of formula (I) concentration. The enzyme concentration is 0.5 nM and substrate concentration is 140 μM.
For the compound `CCC(C)[C@@H](C(=O)N[C@@H](CCCNC(=N)N)C(N)=O)N(C)C(=O)C(Cc1ccc(C(=N)N)cc1)c1cccnc1` (mixture of isomers) [Example 18, 2-(S)-{[3-(4-Carbamimidoyl-phenyl)-2-(R,S)-pyridin-3-yl-propionyl]-methyl-amino}-3-methyl-pentanoic acid (1-(S)-carbamoyl-4-guanidino-butyl)-amide trifluoroacetic acid salt], the Ki worked out at 310 nM. That is a sub-micromolar value.
As for `CCCC[C@H](NC(=O)C(Cc1ccc(C(=N)N)cc1)c1cccnc1)C(=O)N[C@@H](CCCNC(=N)N)C(N)=O` (mixture of isomers) [Example 23, 2-(S)-[3-(4-Carbamimidoyl-phenyl)-2-(R,S)-pyridin-3-yl-propionylamino]-hexanoic acid (1-(S)-carbamoyl-4-guanidino-butyl)-amide trifluoroacetic acid salt], the figure is 2.8 nM; as for `CN(C(=O)C(Cc1ccc(C(=N)N)cc1)c1cccnc1)[C@@H](Cc1ccccc1)C(=O)N[C@@H](CCCNC(=N)N)C(N)=O` (mixture of isomers) [Example 26, 2-(S)-(2-(S)-{[3-(4-Carbamimidoyl-phenyl)-2-(R,S)-pyridin-3-yl-propionyl]-methyl-amino}-3-phenyl-propionylamino)-5-guanidino-pentanoic acid amide trifluoroacetic acid salt], 1070 nM; as for `N=C(N)NCCC[C@H](NC(=O)[C@H](Cc1ccc2ccccc2c1)NC(=O)C(Cc1ccc(C(=N)N)cc1)c1ccc2ccccc2c1)C(N)=O` (mixture of isomers) [Example 39, 2-(S)-{2-(S)-[3-(4-Carbamimidoyl-phenyl)-2-(R,S)-naphthalen-2-yl-propionyl-amino]-3-naphthalen-2-yl-propionylamino}-5-guanidino-pentanoic acid amide trifluoroacetic acid salt], 2890 nM.
As for `N=C(N)NCCC[C@H](NC(=O)[C@H](CCCN)NC(=O)C(Cc1ccc(C(=N)N)cc1)c1cccnc1)C(N)=O` (mixture of isomers) [Example 51, 2-(S)-{5-Amino-2-(S)-[3-(4-carbamimidoyl-phenyl)-2-(R,S)-pyridin-3-yl-propionylamino]-pentanoylamino}-5-guanidino-pentanoic acid amide trifluoroacetic acid salt], the figure is 3860 nM; as for `N=C(N)NCCC[C@H](NC(=O)[C@H](CO)NC(=O)C(Cc1ccc(C(=N)N)cc1)c1ccccc1)C(N)=O` (mixture of isomers) [Example 57, 2-(S)-{2-(S)-[3-(4-Carbamimidoyl-phenyl)-2-(R,S)-phenyl-propionylamino]-3-hydroxy-propionylamino}-5-guanidino-pentanoic acid amide trifluoroacetic acid salt], 1930 nM.
The compound `N=C(N)NCCC[C@H](NC(=O)[C@@H](NC(=O)C(Cc1ccc(C(=N)N)cc1)c1cccnc1)c1ccccc1)C(N)=O` (mixture of isomers) [Example 66, 2-(S)-{2-(S)-[3-(4-Carbamimidoyl-phenyl)-2-(R,S)-pyridin-3-yl-propionyl-amino]-2-phenyl-acetylamino}-5-guanidino-pentanoic acid amide trifluoroacetic acid salt] gave a Ki of 2.3 nM. Against the preceding compound, the Ki is about 840-fold lower.
As for `CC(Cc1ccc(C(=N)N)cc1)(C(=O)N[C@@H](COCc1ccccc1)C(=O)N[C@@H](CCCNC(=N)N)C(N)=O)c1ccccc1` (mixture of isomers) [Example 70, 2-(S)-{3-Benzyloxy-2-(S)-[3-(4-carbamimidoyl-phenyl)-2-(R,S)-methyl-2-phenyl-propionylamino]-propionylamino}-5-guanidino-pentanoic acid amide trifluoroacetic acid salt], the figure is 30 nM.
As for `N=C(N)NCCC[C@H](NC(=O)[C@@H](NC(=O)C(Cc1ccc(C(=N)N)cc1)c1ccc2ccccc2c1)C1CCCCC1)C(=O)O` (mixture of isomers) [Example 79, 2-(S)-{2-(S)-[3-(4-Carbamimidoyl-phenyl)-2-(R,S)-naphthalen-2-yl-propionyl-amino]-2-cyclohexyl-acetylamino}-5-guanidino-pentanoic acid trifluoroacetic acid salt], the figure is 22.5 nM; as for `N=C(N)NCCC[C@H](NC(=O)[C@H](CCC(=O)O)NC(=O)C(Cc1ccc(C(=N)N)cc1)c1ccc2ccccc2c1)C(=O)N[C@@H](CC1CCCCC1)C(N)=O` (mixture of isomers) [Example 82, 4-(S)-[3-(4-Carbamimidoyl-phenyl)-2-(R,S)-naphthalen-2-yl-propionylamino]-4-[1-(S)-(1-(S)-carbamoyl-2-cyclohexyl-ethylcarbamoyl)-4-guanidino-butylcarbamoyl]-butyric acid trifluoroacetic acid salt], 2840 nM.
As for `N=C(N)NCCC[C@H](NC(=O)[C@@H](NC(=O)C(Cc1ccc(C(=N)N)cc1)c1ccc2ccccc2c1)C1CCCCC1)C(N)=O` (mixture of isomers) [Example 95, 2-(S)-{2-(S)-[3-(4-Carbamimidoyl-phenyl)-2-(R,S)-naphthalen-2-yl-propionylamino]-2-cyclohexyl-acetylamino}-5-guanidino-pentanoic acid amide trifluoroacetic acid salt], the figure is 9.1 nM.
For `CC(Cc1ccc(C(=N)N)cc1)(C(=O)N[C@H](C(=O)N[C@@H](CCCNC(=N)N)C(N)=O)C1CCCCC1)c1ccccc1` (mixture of isomers) [Example 96, 2-(S)-{2-(S)-[3-(4-Carbamimidoyl-phenyl)-2-(R,S)-methyl-2-phenyl-propionylamino]-2-cyclohexyl-acetylamino}-5-guanidino-pentanoic acid amide trifluoroacetic acid salt], the Ki was determined as 8.4 nM.
Take `CC(Cc1ccc(C(=N)N)cc1)(C(=O)N[C@@H](CC1CCCCC1)C(=O)N[C@@H](CCCNC(=N)N)C(N)=O)c1ccccc1` (mixture of isomers) [Example 100, 2-(S)-{2-(S)-[3-(4-Carbamimidoyl-phenyl)-2-(R,S)-methyl-2-phenyl-propionylamino]-3-cyclohexyl-propionylamino}-5-guanidino-pentanoic acid amide trifluoroacetic acid salt]: the Ki turned out to be 440 nM.
As for `N=C(N)NCCC[C@H](NC(=O)[C@H](Cc1ccccc1)NC(=O)C(Cc1ccc(C(=N)N)cc1)c1cccnc1)C(N)=O` (mixture of isomers) [Example 106, 2-(S)-{2-(S)-[3-(4-Carbamimidoyl-phenyl)-2-(R,S)-pyridin-3-yl-propionylamino]-3-phenyl-propionylamino}-5-guanidino-pentanoic acid amide trifluoroacetic acid salt], the figure is 67 nM; as for `Cc1cccc(C(Cc2ccc(C(=N)N)cc2)C(=O)N[C@H](C(=O)N[C@@H](CCCNC(=N)N)C(N)=O)C2CCCCC2)c1` (mixture of isomers) [Example 122, 2-(S)-{2-(S)-[3-(4-Carbamimidoyl-phenyl)-2-(R,S)-m-tolyl-propionylamino]-2-cyclohexyl-acetylamino}-5-guanidino-pentanoic acid amide hydrochloric acid salt], 16 nM; as for `CCOC(=O)[C@H](CCCNC(=N)N)NC(=O)[C@@H](NC(=O)C(Cc1ccc(C(=N)N)cc1)c1cccc(F)c1)C1CCCCC1` (mixture of isomers) [Example 126, 2-(S)-{2-(S)-[3-(4-Carbamimidoyl-phenyl)-2-(R,S)-(3-fluoro-phenyl)-propionylamino]-2-cyclohexyl-acetylamino}-5-guanidino-pentanoic acid ethyl ester hydrochloric acid salt], 11 nM.
As for `N=C(N)NCCC[C@H](NC(=O)[C@@H](NC(=O)C(Cc1ccc(C(=N)N)cc1)c1ccccc1)C1CCCCC1)C(N)=O` (mixture of isomers) [Example 135, 2-(S)-{2-(S)-[3-(4-Carbamimidoyl-phenyl)-2-(R,S)-phenyl-propionylamino]-2-cyclohexyl-acetylamino}-5-guanidino-pentanoic acid amide hydrochloric acid salt], the figure is 13 nM; as for `N=C(N)c1ccc(CNC(=O)[C@@H](NC(=O)C(Cc2ccc(CN)cc2)C2CCCCC2)C2CCCCC2)cc1` (mixture of isomers) [Example 138, 3-(4-Aminomethyl-phenyl)-N-[(S)-(4-carbamimidoyl-benzyl-carbamoyl)-cyclohexyl-methyl]-2-(R,S)-cyclohexyl-propionamide acetic acid salt], 55 nM.
